Experiment [1] deals with Arf-GAP with SH3 domain, ANK repeat and PH domain-containing protein 1 (Homo sapiens, UniProt Q9ULH1). It is filed as functional.
The target in the next experiment is T1, Protein RecA (Mycobacterium tuberculosis, UniProt P9WHJ3).
T1 sequence (P9WHJ3 whole entry): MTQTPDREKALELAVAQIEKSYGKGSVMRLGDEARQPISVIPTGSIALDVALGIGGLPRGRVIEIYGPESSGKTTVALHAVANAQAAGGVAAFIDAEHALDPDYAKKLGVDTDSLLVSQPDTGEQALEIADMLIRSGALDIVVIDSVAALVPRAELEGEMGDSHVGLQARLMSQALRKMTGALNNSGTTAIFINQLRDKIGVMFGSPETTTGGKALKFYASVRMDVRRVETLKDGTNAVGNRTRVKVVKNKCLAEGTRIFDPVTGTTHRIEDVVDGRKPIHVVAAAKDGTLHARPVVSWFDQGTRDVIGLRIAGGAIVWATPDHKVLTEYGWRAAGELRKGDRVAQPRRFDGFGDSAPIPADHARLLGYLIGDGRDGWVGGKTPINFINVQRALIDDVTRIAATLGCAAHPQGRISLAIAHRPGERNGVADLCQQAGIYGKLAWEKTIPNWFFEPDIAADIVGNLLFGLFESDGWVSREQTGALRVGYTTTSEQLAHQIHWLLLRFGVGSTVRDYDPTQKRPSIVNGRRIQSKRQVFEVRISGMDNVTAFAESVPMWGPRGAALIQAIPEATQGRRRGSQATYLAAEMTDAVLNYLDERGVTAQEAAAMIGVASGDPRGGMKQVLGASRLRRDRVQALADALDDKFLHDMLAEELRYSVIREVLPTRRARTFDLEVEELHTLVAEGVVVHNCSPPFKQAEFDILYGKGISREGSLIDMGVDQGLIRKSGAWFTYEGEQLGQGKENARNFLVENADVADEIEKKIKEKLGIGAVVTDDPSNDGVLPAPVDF
The experiment in a line: Fluorescence Cell-Free Homogeneous Dose Retest to Identify Inhibitors of RecA-Intein Splicing Activity. [Related pubchem assays (depositor defined):AID2097, AID2223, AID489010, AID492950]. It counts as functional.

The target of experiment [2] is T2, Replicative DNA helicase DnaB (Mycobacterium tuberculosis, UniProt P9WMR3).
T2 sequence (P9WMR3 whole entry): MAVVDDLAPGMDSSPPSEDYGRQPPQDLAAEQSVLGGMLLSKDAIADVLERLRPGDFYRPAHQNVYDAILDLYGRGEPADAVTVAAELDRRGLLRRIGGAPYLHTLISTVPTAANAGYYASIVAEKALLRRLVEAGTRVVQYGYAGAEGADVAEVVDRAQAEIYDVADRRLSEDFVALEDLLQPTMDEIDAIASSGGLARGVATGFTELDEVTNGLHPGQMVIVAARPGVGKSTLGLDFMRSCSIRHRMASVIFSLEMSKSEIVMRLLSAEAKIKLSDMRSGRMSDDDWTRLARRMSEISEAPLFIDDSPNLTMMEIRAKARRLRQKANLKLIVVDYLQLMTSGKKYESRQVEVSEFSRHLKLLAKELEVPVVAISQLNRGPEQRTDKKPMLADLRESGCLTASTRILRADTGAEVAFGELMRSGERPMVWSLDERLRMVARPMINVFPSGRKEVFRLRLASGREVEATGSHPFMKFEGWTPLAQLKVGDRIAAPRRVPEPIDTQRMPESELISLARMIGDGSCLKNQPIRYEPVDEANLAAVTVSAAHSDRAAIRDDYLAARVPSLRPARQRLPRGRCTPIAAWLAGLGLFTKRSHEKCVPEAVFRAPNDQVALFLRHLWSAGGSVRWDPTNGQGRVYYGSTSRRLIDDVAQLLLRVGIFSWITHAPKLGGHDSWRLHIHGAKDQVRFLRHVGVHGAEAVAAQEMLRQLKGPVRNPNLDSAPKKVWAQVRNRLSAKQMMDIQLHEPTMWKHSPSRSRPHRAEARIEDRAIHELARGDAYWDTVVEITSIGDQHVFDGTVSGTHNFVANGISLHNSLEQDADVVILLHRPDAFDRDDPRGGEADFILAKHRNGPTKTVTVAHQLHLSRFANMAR
The experiment in a line: DnaB intein splicing inhibitors, dose response, biochemical, cell-free fluorescence (AID 449749). It counts as functional.

In experiment [3] the target is T3, Apoptotic protease-activating factor 1 (Homo sapiens, UniProt O14727).
T3 sequence (O14727 whole entry): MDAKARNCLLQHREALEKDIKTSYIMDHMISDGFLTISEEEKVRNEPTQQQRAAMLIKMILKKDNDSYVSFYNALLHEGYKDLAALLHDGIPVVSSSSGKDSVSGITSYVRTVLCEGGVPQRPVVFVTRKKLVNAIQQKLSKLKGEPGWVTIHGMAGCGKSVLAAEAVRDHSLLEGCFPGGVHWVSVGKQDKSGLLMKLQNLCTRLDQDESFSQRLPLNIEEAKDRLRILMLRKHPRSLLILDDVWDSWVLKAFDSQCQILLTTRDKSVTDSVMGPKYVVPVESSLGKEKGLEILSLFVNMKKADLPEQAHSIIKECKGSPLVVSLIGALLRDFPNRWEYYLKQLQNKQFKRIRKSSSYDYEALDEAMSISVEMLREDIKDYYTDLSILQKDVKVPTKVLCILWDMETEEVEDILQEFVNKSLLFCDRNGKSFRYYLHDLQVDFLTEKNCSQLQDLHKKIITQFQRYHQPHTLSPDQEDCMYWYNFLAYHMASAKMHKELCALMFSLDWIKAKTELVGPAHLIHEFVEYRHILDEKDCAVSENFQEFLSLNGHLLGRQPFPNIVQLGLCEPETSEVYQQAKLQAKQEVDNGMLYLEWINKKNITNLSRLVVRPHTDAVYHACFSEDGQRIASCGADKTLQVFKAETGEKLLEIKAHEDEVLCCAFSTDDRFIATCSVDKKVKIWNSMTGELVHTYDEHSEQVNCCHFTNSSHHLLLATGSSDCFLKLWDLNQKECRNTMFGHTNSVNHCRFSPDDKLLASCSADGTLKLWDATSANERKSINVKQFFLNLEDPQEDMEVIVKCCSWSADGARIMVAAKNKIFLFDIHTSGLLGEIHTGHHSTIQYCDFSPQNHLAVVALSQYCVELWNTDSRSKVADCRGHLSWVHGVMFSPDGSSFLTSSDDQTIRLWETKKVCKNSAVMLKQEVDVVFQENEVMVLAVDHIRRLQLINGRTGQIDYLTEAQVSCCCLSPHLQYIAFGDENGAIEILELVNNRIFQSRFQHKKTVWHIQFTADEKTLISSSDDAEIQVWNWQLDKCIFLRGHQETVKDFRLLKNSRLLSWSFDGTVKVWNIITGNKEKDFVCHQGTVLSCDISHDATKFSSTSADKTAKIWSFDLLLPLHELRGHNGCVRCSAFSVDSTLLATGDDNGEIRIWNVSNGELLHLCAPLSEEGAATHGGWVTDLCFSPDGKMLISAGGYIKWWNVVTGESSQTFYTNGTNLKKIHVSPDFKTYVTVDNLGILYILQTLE
It counts as functional.

The target in experiment [4] is T4, Tyrosyl-DNA phosphodiesterase 2 (Homo sapiens, UniProt O95551).
T4 sequence (O95551 whole entry): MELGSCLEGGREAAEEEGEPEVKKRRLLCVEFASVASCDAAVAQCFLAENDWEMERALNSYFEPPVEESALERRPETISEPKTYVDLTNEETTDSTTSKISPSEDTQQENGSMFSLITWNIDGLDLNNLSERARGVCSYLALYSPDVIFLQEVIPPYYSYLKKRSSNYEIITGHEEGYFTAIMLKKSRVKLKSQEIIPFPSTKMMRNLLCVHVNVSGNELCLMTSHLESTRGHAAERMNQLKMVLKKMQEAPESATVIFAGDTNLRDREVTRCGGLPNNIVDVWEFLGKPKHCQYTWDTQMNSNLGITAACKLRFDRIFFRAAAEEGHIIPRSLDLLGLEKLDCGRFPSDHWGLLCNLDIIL
Description: potency against TDP2 phosphodiesterase activity – biochemical, epi absorbance, IC50, dose response (AID 743297).

Experiment [5] can be described thus: L6 myocyte viability loss – cell-based, plate reader, cherry-pick, cytotoxicity control, dose response (AID 651896). It is filed as functional.
Experiment [6] can be described thus: Inhibition of Plasmodium falciparum NF54 Measured in Cell-Based System Using Plate Reader - 2138-11_Inhibitor_Dose_CherryPick_Activity. It is filed as functional.
Experiment [7] is described as follows: intracellular Trypanosoma cruzi inhibitors in host cells – cell-based, plate reader, cherry-pick samples, set 3, dose response (AID 651818).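 Also: compounds incubated with infected cells for about four days.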 It is filed as functional.
Experiment [8] is described as follows: African trypanosome bloodstream form growth inhibition – STIB900 strain, plate reader, cherry pick, dose response (AID 651893). It counts as functional, cell-based, Trypanosoma brucei rhodesiense. The conditions noted are these: Trypanosoma brucei.
A short description of experiment [9]: Inhibition of T. cruzi Tulahuen strain amastigotes in L-6 muscle cells Measured in Cell-Based and Microorganism Combination System Using Plate Reader - 2138-03_Inhibitor_Dose_CherryPick_Activity. It counts as functional. The conditions noted are these: Rattus norvegicus, L6.
Experiment [10] is described as follows: antileishmanial activity on axenic amastigotes – plate reader, cherry pick, dose response (AID 651891). It is filed as functional, cell-based. The conditions noted are these: Leishmania donovani.

Drawing on ChEMBL document CHEMBL1201862, “PubChem BioAssay data set” (2004), this text covers IC50, EC50 and AC50 for 2 compounds.

Molecules are shown by their SMILES. Calls of active or inactive are those of the source. Unless noted, the rule behind the calls is not given here.

Arf-GAP with SH3 domain, ANK repeat and PH domain-containing protein 1, sequence (Q9ULH1 whole entry, the tested form may be a part): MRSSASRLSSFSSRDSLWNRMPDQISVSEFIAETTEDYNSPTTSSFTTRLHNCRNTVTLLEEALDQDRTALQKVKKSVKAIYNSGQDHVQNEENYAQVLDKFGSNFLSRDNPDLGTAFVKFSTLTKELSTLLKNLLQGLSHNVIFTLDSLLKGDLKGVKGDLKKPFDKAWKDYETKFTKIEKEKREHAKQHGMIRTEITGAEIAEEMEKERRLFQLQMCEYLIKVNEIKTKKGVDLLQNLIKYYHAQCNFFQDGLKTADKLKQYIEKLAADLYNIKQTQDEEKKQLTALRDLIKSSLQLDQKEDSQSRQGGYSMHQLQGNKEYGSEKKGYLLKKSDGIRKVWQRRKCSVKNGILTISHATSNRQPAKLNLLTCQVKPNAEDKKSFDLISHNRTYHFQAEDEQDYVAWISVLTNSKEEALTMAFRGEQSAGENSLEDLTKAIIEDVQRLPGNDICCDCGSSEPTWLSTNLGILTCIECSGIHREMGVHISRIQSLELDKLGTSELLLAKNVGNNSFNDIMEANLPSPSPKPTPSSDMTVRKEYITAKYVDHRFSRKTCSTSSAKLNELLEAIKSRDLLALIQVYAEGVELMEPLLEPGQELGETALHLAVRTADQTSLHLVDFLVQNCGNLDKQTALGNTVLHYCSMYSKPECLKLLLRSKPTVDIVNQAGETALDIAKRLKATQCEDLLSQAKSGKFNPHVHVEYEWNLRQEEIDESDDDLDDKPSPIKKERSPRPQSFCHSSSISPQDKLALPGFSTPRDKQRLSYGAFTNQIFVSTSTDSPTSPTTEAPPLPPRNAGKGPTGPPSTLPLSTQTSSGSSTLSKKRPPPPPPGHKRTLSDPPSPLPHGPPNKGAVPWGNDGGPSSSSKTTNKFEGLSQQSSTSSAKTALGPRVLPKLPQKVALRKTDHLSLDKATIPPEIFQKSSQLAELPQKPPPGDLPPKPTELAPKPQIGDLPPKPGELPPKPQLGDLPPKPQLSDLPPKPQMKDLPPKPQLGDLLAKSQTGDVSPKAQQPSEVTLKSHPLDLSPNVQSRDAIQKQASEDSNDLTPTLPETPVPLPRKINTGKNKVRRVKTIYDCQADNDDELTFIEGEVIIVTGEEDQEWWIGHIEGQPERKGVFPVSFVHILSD

As to `COc1ccccc1Nc1cc2cc(Br)ccc2c(=O)[nH]1`, the IC50 is 165 µM (inactive) in experiment [1], 1.51 µM (active) in experiment [3] and 10.7 µM (inactive) in experiment [4]. The concentration giving a half-maximal response (EC50) at Protein RecA was 23.3 µM (active). In experiment [2], the AC50 was > 120 µM (inactive).

As to `COc1ccc(CN(C)C[C@@H]2Oc3c(NC(=O)c4ccncc4)cccc3C(=O)N([C@H](C)CO)C[C@H]2C)cc1`, the IC50 is > 100 µM (inactive) in experiment [5]; 5.91 µM (inactive) in experiment [6]; 2.62 µM (inactive) in experiment [8]; 5.91 µM (inactive) in experiment [9]; > 100 µM (inactive) in [10]. Also, the AC50 in experiment [7] is 0.361 µM (active).
